Source: PubChem BioAssay (NCI)
“And” between values parts separate entries of the source, which are not always exact repeats. Equal values may be shown once.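 Cells were grown in 96-well plates and exposed to each compound for 48 hours at five concentrations; endpoints were interpolated linearly between bracketing concentrations, or set to the highest concentration if not reached. GI50: concentration for 50% inhibition of growth. TGI: concentration producing complete growth inhibition.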

How the values were obtained:
Assay in all cases: NCI-60 cell line screen, 48 h
[1] = system: EKVX NSCLC
[2] = system: RXF 393 renal
[3] = system: PC-3 prostate
[4] = system: SF-268 CNS
[5] = system: OVCAR-3 ovarian
[6] = system: A498 renal
[7] = system: ACHN renal
[8] = system: RPMI-8226 leukemia
[9] = system: SW-620 colon
[10] = system: HOP-92 NSCLC

| Compound | GI50 [1] | TGI [1] | GI50 [2] | TGI [2] | GI50 [3] | TGI [3] | GI50 [4] | TGI [4] | GI50 [5] | TGI [5] | GI50 [6] | TGI [6] | GI50 [7] | TGI [7] | GI50 [8] | TGI [8] | GI50 [9] | TGI [9] | GI50 [10] | TGI [10] |
| --- | --- | --- | --- | --- | --- | --- | --- | --- | --- | --- | --- | --- | --- | --- | --- | --- | --- | --- | --- | --- |
| C(=N/N(Cc1ccccc1)Cc1ccccc1)/c1ccccc1 | 59.3 µM | > 100 µM | 66.3 µM | > 100 µM | > 100 µM | > 100 µM | > 100 µM | > 100 µM | > 100 µM | > 100 µM | 94.9 µM | > 100 µM | > 100 µM | > 100 µM | 51.8 µM | > 100 µM | > 100 µM | > 100 µM | 53.3 µM | > 100 µM |
| COc1cc2nc(-c3cc(F)ccc3O)nc(N[C@@H]3CNC[C@H]3C(C)(C)O)c2cc1OC | 1.44 µM | 3.02 µM | 1.27 µM | 2.55 µM | 2.09 µM | 5.7 µM | 1.32 µM | 2.75 µM | 1.9 µM | 3.62 µM | 1.12 µM | 2.6 µM | 1.75 µM | 3.38 µM | 2.15 µM | 5.14 µM | 1.82 µM | 3.39 µM | 0.465 µM | 1.9 µM |
| Oc1cccc2ccc(N/N=C/c3cc(CN4CCOCC4)c(O)c4ncccc34)nc12 | 0.0962 µM | 11.2 µM | 0.048 µM | 1.66 µM | 0.0346 µM | 4.92 µM | 0.0372 µM | 13.4 µM | 0.0392 µM | 2.09 µM | 0.376 µM | 4.06 µM | < 0.0119 µM | 1.47 µM | 0.0154 µM | 10.5 µM | – | 2.41 µM | 0.0212 µM | 0.0678 µM |
| O=C(CC1(O)C(=O)N(Cc2ccccc2)c2ccccc21)c1ccc(C(=O)NCC2CCC3(CC2)OOC2(CCCCC2)OO3)cc1 (centres undefined) | 0.659 µM | 2.04 µM | 0.705 µM | 1.98 µM | 1.58 µM | 4.91 µM | 1.85 µM | 4.03 µM | 1.21 µM | 2.74 µM | 2.42 µM | 7.32 µM | 0.195 µM | 0.399 µM | 0.886 µM | 3.43 µM | 3.56 µM | > 41.5 µM | 0.184 µM | 0.434 µM |
| Cc1cc(C#Cc2ccc(C(C)(C)C)cc2)ccc1-n1c(/C=C/c2ccc(O)cc2O)nc2ccccc2c1=O | 3.67 µM | 16.2 µM | 1.88 µM | 4.46 µM | 3.67 µM | 16.2 µM | 4.82 µM | 18 µM | 3.23 µM | 12.5 µM | 2.98 µM | 11.4 µM | 3.26 µM | 13.4 µM | 3.1 µM | 26.9 µM | 1.81 µM | 3.71 µM | 2.82 µM | 8.31 µM |
| O=C(O)Cc1cccnc1 | – | > 100 µM | – | > 100 µM | – | > 100 µM | – | > 100 µM | – | > 100 µM | – | > 100 µM | – | > 100 µM | – | > 100 µM | – | > 100 µM | – | > 100 µM |
| Cc1cccc2c3c(sc12)C(c1ccc(Cl)cc1)C(C#N)=C(N)O3 (centres undefined) | 0.57 µM | 17.8 µM | 0.215 µM | 0.649 µM | 0.395 µM | 12.8 µM | 1.41 µM | 14.8 µM | 0.384 µM | 3.16 µM | 0.211 µM | 1.2 µM | 0.834 µM | 14.1 µM | 0.423 µM | 6.33 µM | 0.416 µM | 11.6 µM | 1.32 µM | 19 µM |
| Cc1cc(C)nc(SC2=C(Nc3cc(Cl)ccc3O)C(=O)N(Cc3ccccc3)C2=O)n1 | 57.7 µM | > 160 µM | 4.03 µM | 17.2 µM | 19.9 µM | 86.4 µM | 61.2 µM | > 160 µM | 18.8 µM | 53.2 µM | > 160 µM | > 160 µM | 43.5 µM | > 160 µM | 3.57 µM | 25.7 µM | 53 µM | > 160 µM | 21.9 µM | 68.5 µM |
| O=C1OC(C(O)CO)C(O)=C1O (centres undefined) | 2420 µM | 4390 µM | 1650 µM and 1750 µM | 3080 µM and 3400 µM | 2190 µM and > 4180 µM | 5670 µM and > 5820 µM | 2120 µM and 1960 µM | 4020 µM | 1560 µM | 2900 µM | 4650 µM and > 10000 µM | > 10000 µM | 1540 µM and 1610 µM | 2940 µM and 3060 µM | 1910 µM and 2400 µM | 4500 µM and 6610 µM | 191 µM and 189 µM | 408 µM and 412 µM | 2060 µM and > 10000 µM | 4480 µM and > 10000 µM |
| CCC1(O)C(=O)OCc2c1cc1n(c2=O)Cc2cc3c(NC(=O)CN)cccc3nc2-1 (centres undefined) | 19.7 µM | > 88.2 µM | 0.515 µM | 3.91 µM | 2.72 µM | > 100 µM | 0.191 µM | 46.5 µM | 3.3 µM | 22.3 µM | 0.883 µM | 5.65 µM | 0.187 µM | 2.71 µM | 1.69 µM | 40.3 µM | 1.75 µM | 97.9 µM | 2.47 µM | 24.1 µM |
